pIC50: −log10 of the molar value.
tested on: Plasmodium falciparum; test: MMV: Growth inhibition of P. falciparum cultures was quantified using a parasite lactate dehydrogenase (LDH) assay. The cultures were diluted to 0.5% parasitemea and 2% hematocrit and subjected to each twofold serial dilutions of the compounds for 72 h (DMSO final concentration, 0.25%). After 72 h, the cultures were frozen. LDH activity of P. falciparum parasites in aliquots of freeze-thawed cultures was spectrophotometrically measured and the IC50s were determined.; assay type: functional, organism-based; conditions: FCR3, 72 h

SMILES | pIC50
O=C(Nc1ccc(Cl)c(Cl)c1)Nc1ccc(Cl)c(Cl)c1 | 5.69
OC(CNCC1CCCO1)Cn1c2ccc(Cl)cc2c2cc(Cl)ccc21 (stereo not given) | 6.54
CCn1nc(-c2ccc(C(=O)OC)cc2)nc2c(=O)n(C)c(=O)nc1-2 | 5.82
CC1(c2ccccc2)Nc2ccccc2-c2nc3ccccc3n21 (stereo not given) | 6.40
COc1cccc(C2(C)Nc3ccccc3-c3nc4ccccc4n32)c1 (stereo not given) | 6.41
CC(C)(C)CC(C)(C)NCC(O)COc1ccc(Cl)cc1Cl (stereo not given) | 6.26
Cc1ccc(Nc2nc(-c3ccccn3)cs2)cc1 | 5.84
OC1=C2C(=Nc3ccccc3SC2c2ccccc2)c2ccccc21 (stereo not given) | 6.47
COCCNCC(O)Cn1c2ccc(Cl)cc2c2cc(Cl)ccc21 (stereo not given) | 6.56
FC(F)(F)c1cccc(Nc2nc3ccccc3nc2Nc2cccc(C(F)(F)F)c2)c1 | 5.93
CCC(O)c1ccc(Br)cc1NC(=O)c1cccc(Cl)c1 (stereo not given) | 5.88
O=c1nc(C=Cc2ccc(Br)cc2)oc2ccccc12 | < 5.30
Brc1ccc(Nc2nc3ccccc3nc2Nc2ccc(Br)cc2)cc1 | 5.81
FC(F)(F)c1cccc(Nc2nc(-c3ccccc3)nc3ncccc23)c1 | 6.04
COc1ccc(C=C2SC(=N)N(c3ccccc3OC)C2=O)cc1 | 6.54
Cc1cc(Nc2ccc(OCc3ccccc3)cc2)nc2cc(O)ccc12 | 6.90
OCCNc1nc(Nc2ccc(Cl)c(Cl)c2)nc2ccccc12 | 6.56
Cc1ccc(C)c(Cn2c(N3CCC(C(=O)NCc4cccs4)CC3)nc3ccccc32)c1 | 5.74
O=C1c2ccccc2C2=Nc3ccccc3SC(c3cccc(F)c3)C12 (stereo not given) | 6.15
COc1ccccc1NC1=C(N2CCCCC2)C(=O)c2ccccc2C1=O | 7.30

SMILES | pIC50
O=C(Nc1ccc(N2CCCCC2)c(Cl)c1)c1ccc(Br)o1 | 5.96
OC(CNC1CCCCC1)Cn1c2ccc(I)cc2c2cc(I)ccc21 (stereo not given) | 6.86
O=C(Nc1cccc(C(F)(F)F)c1)c1cc(Cl)ccc1O | 5.44
CCOc1cccc2sc(N(Cc3cccnc3)C(=O)C3CCCCC3)nc12 | < 5.30
CCc1ccc(Nc2cc(C)c3ccc(O)cc3n2)cc1 | 7.12
COc1ccc(C(O)(CCC(C)C)C(CN2CCOCC2)c2ccc(Cl)cc2)cc1 (stereo not given) | < 5.30
O=C(Nc1nc(-c2ccccn2)cs1)c1ccccc1Br | 5.56
CSc1ccccc1C(=O)Nc1nc(-c2ccccn2)cs1 | 5.66
CC(C)(C)c1ccc2c(c1)CN(Cc1ccc(Cl)cc1)CO2 | 7.45
CCCCC(O)(c1ccc(Cl)cc1)C(CN1CCOCC1)c1ccc(Cl)cc1 (stereo not given) | < 5.30
O=c1nc(C=Cc2ccc(Cl)cc2)oc2ccccc12 | < 5.30
c1ccc(CNc2nc(Nc3ccccc3)nc3ccccc23)cc1 | 6.37
COc1ccc(Nc2nc(NCc3ccccc3)c3ccccc3n2)cc1 | 6.69
Oc1c(CN2CCN(c3ccccc3F)CC2)cc(Br)c2cccnc12 | 6.11
OC(CNCc1ccccc1)Cn1c2ccccc2c2ccccc21 (stereo not given) | 6.14
CCCCCCC(O)(c1ccc(F)cc1)C(CN1CCOCC1)c1ccccc1 (stereo not given) | < 5.30
COc1ccc(C(=O)C2CC2c2ccc(Cl)cc2)cc1 (stereo not given) | 5.57
COc1ccc2sc(N(Cc3cccnc3)C(=O)c3ccc(C#N)cc3)nc2c1 | < 5.30
O=C(NCC1Cc2cccc(-c3ccncc3)c2O1)c1csc2c1CCCC2 (stereo not given) | < 5.30
CN(C)c1ccc(C(O)(c2ccc(N(C)C)cc2)c2ccc(N(C)C)cc2)cc1 [METHYLROSANILINE] | 7.32
